≈ marks a conversion by molar mass, not a printed value. Read-outs that look alike come from different tables or passages of the source. Ends that are not written are not given here.
Key:
B. cepacia ATCC 25416 = assay: Two stage radial diffusion assay (MIC); format: cell-based; set-up: unit not given here; settings: underlay 0 mM NaCl
S. aureus 930918-3 = settings: for MIC S. aureus [NaCl] High / MIC S. aureus [NaCl] Low: 930918-3, pH 7.4
P. aeruginosa MR 3007 = settings: for MIC P. aeruginosa [NaCl] High / MIC P. aeruginosa [NaCl] Low: MR 3007, pH 7.4
E. coli ML-35p = settings: for E. coli ML-35p MIC, 0 mM NaCl: underlay 0 mM NaCl; for MIC E. coli [NaCl] High: high salt underlay (10 mM sodium phosphate buffer +100 mM NaCl, pH 7.4); for MIC E. coli [NaCl] High / MIC E. coli [NaCl] Low: Table 13; for MIC E. coli [NaCl] Low: low salt underlay (10 mM sodium phosphate buffer, pH 7.4)
N. gonorrhoeae = assay: Two stage radial diffusion assay (MIC); format: cell-based; set-up: unit not given here; settings: done only at 100 mM NaCl
MRSA ATCC 33591 = settings: for MIC MRSA [NaCl] High / MIC MRSA [NaCl] Low: ATCC 33591, pH 7.4
L. monocytogenes EGD = assay: Two stage radial diffusion assay (MIC); format: cell-based; set-up: unit not given here; settings: underlay 0 mM NaCl
E. coli DH5α = settings: for EC50: DH5α; for EC50 E. coli DH5α: ionic strength 25 mM, avg ± sem
E. coli DH-5α = settings: DH-5α
[1] = ionic strength 25 mM, avg ± sem
[2] = ionic strength 175 mM, avg ± sem

Row | Compound | EC50 P. aeruginosa PAO1 (P. aeruginosa PAO1; [1]) [µg/mL] | EC50 P. aeruginosa PAO1 (P. aeruginosa PAO1; [2]) [µg/mL] | MIC S. aureus [NaCl] High (S. aureus 930918-3) [µg/mL] | MIC S. aureus [NaCl] Low (S. aureus 930918-3) [µg/mL] | MIC P. aeruginosa [NaCl] High (P. aeruginosa MR 3007) [µg/mL] | MIC P. aeruginosa [NaCl] Low (P. aeruginosa MR 3007) [µg/mL] | MIC E. coli [NaCl] High (E. coli ML-35p) [µg/mL] | MIC E. coli [NaCl] Low (E. coli ML-35p) [µg/mL] | MIC MRSA [NaCl] High (MRSA ATCC 33591) [µg/mL] | MIC MRSA [NaCl] Low (MRSA ATCC 33591) [µg/mL] | other results
1 | CC[C@H](C)[C@H](N)C(=O)N[C@@H](CCCNC(=N)N)C(=O)N[C@@H](CCCNC(=N)N)C(=O)N[C@H](C(=O)N[C@H](C(=O)N[C@@H](CCCNC(=N)N)C(=O)N[C@@H](CCCCN)C(=O)N[C@H](C(=O)N[C@H](C(=O)N[C@@H](Cc1c[nH]cn1)C(=O)N[C@H](C(=O)N[C@H](C(=O)N[C@@H](CCCCN)C(=O)N[C@@H](CCCCN)C(=O)O)[C@@H](C)CC)[C@@H](C)CC)[C@@H](C)CC)[C@@H](C)CC)[C@@H](C)CC)[C@@H](C)CC [SMAP29X-14D] | 0.65 ± 0.06 (≈ 0.361 µM) | 7.11 ± 2.40 (≈ 3.95 µM) |  |  |  |  |  |  |  |  | 
2 | CC[C@H](C)[C@H](NC(=O)[C@H](CCCNC(=N)N)NC(=O)[C@H](CCCNC(=N)N)NC(=O)[C@@H](NC(=O)[C@@H](N)CC(N)=O)[C@@H](C)CC)C(=O)N[C@H](C(=O)N[C@@H](CCCNC(=N)N)C(=O)N[C@@H](CCCCN)C(=O)N[C@H](C(=O)N[C@H](C(=O)N[C@@H](Cc1c[nH]cn1)C(=O)N[C@H](C(=O)N[C@H](C(=O)N[C@@H](CCCCN)C(=O)N[C@@H](CCCCN)C(=O)N[C@@H](Cc1ccc(O)cc1)C(N)=O)[C@@H](C)CC)[C@@H](C)CC)[C@@H](C)CC)[C@@H](C)CC)[C@@H](C)CC [SMAP29X-16C] | 0.65 (≈ 0.313 µM) | 2.21 (≈ 1.06 µM) |  |  |  |  |  |  |  |  | 
3 | GLRKRLRKFRNKIKEKLKKIG [Peptide 19] |  |  |  |  |  |  |  |  |  |  | B. cepacia ATCC 25416 in underlays of low, normal and high salinity, 0 mM NaCl (B. cepacia ATCC 25416): >250; S. aureus 930918-3 MIC, 0 mM NaCl (S. aureus 930918-3): 1.8 µg/mL; P. aeruginosa MR-3007 MIC, 0 mM NaCl (P. aeruginosa MR 3007): 0.7 µg/mL; E. coli ML-35p MIC, 0 mM NaCl (E. coli ML-35p; Table 15): 2.3 µg/mL; N. gonorrhoeae F 62 (serum-sensitive) (N. gonorrhoeae; strain F 62 (serum-sensitive)): 0.6; N. gonorrhoeae FA 19 (serum-resistant) (N. gonorrhoeae; strain FA 19 (serum-resistant)): >79.1; MRSA ATCC 33591 MIC, 0 mM NaCl (MRSA ATCC 33591): 19.4 µg/mL; L. monocytogenes in underlays of low, normal and high salinity, 0 mM NaCl (L. monocytogenes EGD): 0.3
4 | IRRIIRKIIHIIKK-NH2 [Peptide 13] |  |  |  |  |  |  |  |  |  |  | P. aeruginosa PA-01 MIC, 0 mM NaCl (P. aeruginosa PA-01): 1.03 ± 0.08 µg/mL; P. aeruginosa PA-01 MIC, 175 mM NaCl (P. aeruginosa PA-01): 7.45 ± 0.87 µg/mL; S. aureus 930918-3 MIC, 0 mM NaCl (S. aureus 930918-3): 1.03 ± 0.03 µg/mL; S. aureus 930918-3 MIC, 175 mM NaCl (S. aureus 930918-3): 5.93 ± 1.12 µg/mL; P. aeruginosa MR-3007 MIC, 0 mM NaCl (P. aeruginosa MR 3007): 0.84 ± 0.06 µg/mL; P. aeruginosa MR-3007 MIC, 175 mM NaCl (P. aeruginosa MR 3007): 19.7 ± 2.2 µg/mL; MRSA ATCC 33591 MIC, 0 mM NaCl (MRSA ATCC 33591): 2.39 ± 0.07 µg/mL; MRSA ATCC 33591 MIC, 175 mM NaCl (MRSA ATCC 33591): >79.1 µg/mL
5 | IRRIIRKIIHIIKK-NH2 [SMAP29X-14C] | 0.29 ± 0.04 | 1.21 ± 0.05 |  |  |  |  |  |  |  |  | 
6 | KIKEKLKKIGQKIQG [CAP18-15b] | 10.3 ± 0.3 |  | >250 | >250 | >250 | 8.7 | >250 | 1.6 | >250 | >250 | EC50 P. aeruginosa PAO1 (P. aeruginosa PAO1; PAO1): >80 µg/mL; EC50 (E. coli DH5α): 4.15 ± 1.04 µM; EC50 E. coli DH5α (E. coli DH5α): 7.23 ± 1.81 µg/mL
7 | KIKEKLKKIGQKIQGLL [CAP18-17] | 2.33 ± 0.35 |  | >250 | >250 | >250 | 5.1 | 1.9 | 9.7 | >250 | >250 | EC50 P. aeruginosa PAO1 (P. aeruginosa PAO1; PAO1): >25 µg/mL; EC50 (E. coli DH5α): 1.27 ± 0.2 µM; EC50 E. coli DH5α (E. coli DH5α): 2.51 ± 0.38 µg/mL
8 | KNIRRIIRKIIHIIKKYG [SMAP29X-18C] | 0.24 ± 0.01 | 0.61 ± 0.12 |  |  |  |  |  |  |  |  | 
9 | KNIRRIIRKIIHIIKKYG-NH2 [SMAP29X-18B] | 0.16 ± 0.01 | 0.54 ± 0.05 |  |  |  |  |  |  |  |  | 
10 | KNLRRIIRKIIHIIKKYG-NH2 [SMAP29X-18A] | 0.22 ± 0.00 | 0.49 ± 0.02 |  |  |  |  |  |  |  |  | 
11 | KNLRRIIRKIIHIIKKYGPTILRIIRIIG-NH2 [SMAP29X] | 2.74 ± 0.65 | 4.51 ± 0.24 | 1.5 | 1.6 | 1.0 | 2.6 | 0.8 | 1.5 | 1.0 | 6.2 | 
12 | LRKFRNKIKEKLKKIGQKIQG [CAP18-21b] | 1.83 ± 0.51 | 3.45 ± 0.02 | >250 | 16.3 | 23.5 | 2.9 | 0.5 | 2.3 | >250 | 10.3 | EC50 (E. coli DH5α): 1.17 ± 0.13 µM; EC50 E. coli DH5α (E. coli DH5α): 2.99 ± 0.33 µg/mL
13 | LRRIIRKIIHIIK-NH2 [Peptide 15] |  |  |  |  |  |  |  |  |  |  | P. aeruginosa PA-01 MIC, 0 mM NaCl (P. aeruginosa PA-01): 1.07 ± 0.19 µg/mL; P. aeruginosa PA-01 MIC, 175 mM NaCl (P. aeruginosa PA-01): 4.66 ± 1.57 µg/mL; S. aureus 930918-3 MIC, 0 mM NaCl (S. aureus 930918-3): 1.32 ± 0.22 µg/mL; S. aureus 930918-3 MIC, 175 mM NaCl (S. aureus 930918-3): 6.39 ± 1.12 µg/mL; P. aeruginosa MR-3007 MIC, 0 mM NaCl (P. aeruginosa MR 3007): 0.96 ± 0.08 µg/mL; P. aeruginosa MR-3007 MIC, 175 mM NaCl (P. aeruginosa MR 3007): 9.14 ± 4.81 µg/mL; E. coli ML-35p MIC, 0 mM NaCl (E. coli ML-35p; Table 15): 0.64 ± 0.15 µg/mL; E. coli ML-35p MIC, 175 mM NaCl (E. coli ML-35p; underlay 175 mM NaCl, Table 15): 12.6 ± 2.8 µg/mL; E. coli DH-5α MIC, 0 mM NaCl (E. coli DH-5α): 0.82 ± 0.12 µg/mL; E. coli DH-5α MIC, 175 mM NaCl (E. coli DH-5α): 5.35 ± 1.87 µg/mL; MRSA ATCC 33591 MIC, 0 mM NaCl (MRSA ATCC 33591): 2.49 ± 0.27 µg/mL; MRSA ATCC 33591 MIC, 175 mM NaCl (MRSA ATCC 33591): 65.8 ± 13.3 µg/mL

Source: patent US7071293B1, “Alpha helical peptides with broad spectrum antimicrobial activity that are insensitive to salt” (priority 1999, dated 2006)
